1 compound from ChEMBL document CHEMBL1145787, “Synthesis and structure-activity relationship of N-substituted 4-arylsulfonylpiperidine-4-hydroxamic acids as novel, orally active matrix metalloproteinase inhibitors for the treatment of osteoarthritis” (J Med Chem, 2003) can be followed below.

The nature of assay [1]: In vivo inhibition of Matrix metalloprotease enzyme by Sponge-wrapped cartilage assay, value is relative to activity of RS-130830 (39+/-2) at 10 mg/kg. po. bid. The class given is functional.
Assay [2] can be described thus: In vivo inhibitory activity against Matrix metalloprotease enzyme by dialysis implant assay, value is relative to activity of CGS-27023 (65+/-2) at 25 mg/kg. po. The class given is functional.
The next assay deals with Collagenase 3 (Homo sapiens, UniProt P45452).

As to `CN1CCC(C(=O)NO)(S(=O)(=O)c2ccc(Oc3ccc(Cl)cc3)cc2)CC1`, in assay [1], 10 mg/kg produced 73% inhibition in vivo. For the same compound, the inhibition in vivo (usually the percentage by which the read-out fell short of the control) at 25 mg/kg in assay [2] is 91%. Further, on Collagenase 3, the IC50 – broadly, the point on the concentration scale where inhibition reaches its midpoint – stood at 2 nM.
